Results taken from paper PMC9144278, “Inclusion of a Phytomedicinal Flavonoid in Biocompatible Surface-Modified Chylomicron Mimic Nanovesicles with Improved Oral Bioavailability and Virucidal Activity: Molecular Modeling and Pharmacodynamic Studies” (Pharmaceutics, 2022).
≈ marks a conversion by molar mass, not a printed value. Where two headings read alike, the source gives them in different places.

Tests used:
[1] = cited from earlier work
[2] = Ex vivo drug gut-permeation study, noneverted gut sac technique; assay type: in vitro ADME, male Wistar rats; conditions: rat intestine
Protocol: A comparative ex vivo intestinal transport study between the drug suspension and the optimized formula was conducted using the noneverted gut sac technique. […] The small intestine from each animal was then excised and sliced into sections 5 cm in length. The sections were then rinsed using normal saline. Krebs–Ringer solution (~2 mL) was utilized to irrigate the intestinal segments, followed by sac formation by closing the lower portion of the segments using a thread. Each sac was filled with a sample of the pure MH suspension (estimated to comprise 5.0 mg of MH) or with the optimized F9 formulation (estimated to comprise 5.0 mg of MH). Finally, each sac was allocated in an organ path packed with 50 mL of Krebs–Ringer solution after the lower portion of each sac was tightly sealed with a thread. […] CO2 mixture. […] To maintain a constant total volume, the organ path was compensated by the addition of equal volumes of fresh Krebs–Ringer solution after each sample for analysis had been withdrawn. The amounts of MH that had permeated through the intestinal segment were determined via HPLC using a Hitachi LaChrom Elite instrument equipped with a Model Series L-2000 organizer box, L-2300 column oven, L-2130 pump with built in degasser, Rheodyne 7725i injector with a […], and a L-2455 photodiode array detector (PAD). […]

[3] = Pharmacokinetic study after oral administration; conditions: rat
Vero E6 cells = assay: MTT cytotoxicity assay (TC50); assay type: cell-based, African green monkey; conditions: 24 h
Protocol: Dulbecco’s Modified Eagle’s Medium (DMEM) was utilized for sample dilutions. The stock solutions of the investigated formulations were employed as solutions in 10% DMSO in double-distilled H2O. Cells were harvested in 96-well plates (100-µL/well at a density of 3 × 10^5 cells/mL) and were incubated for 24 h at 37 °C in 5% CO2. Afterwards, various amounts of the investigated compounds were added to the cells, and each experiment was performed in triplicate. After an extra 24 h, cell monolayers were dislodged from the supernatant and then rinsed 3 times with sterile phosphate buffer saline (PBS). MTT solution (20.0 µL of 5.00 mg/mL stock solution) was added into each well, and the cells were incubated for 4 h at 37 °C, followed by aspiration of the medium. […] The absorbances of the formazan solutions were assessed at λmax 540 vs. the 620 nm reference wavelength, using a multiwell plate reader. The cytotoxicity percentages related to the untreated cells were computed via GraphPad Prism software (version 7.01) using the following formula: %Cytotoxicity = (absorbance of cells without treatment − absorbance of cells with treatment) × 100 (absorbance of cells without treatment) […]

[4] = test system: IFN-γ, TNF-α, IL-6, IL-4, SOD in BALF; parameters: species or system C57BL/6 mice; conditions: mouse, in vivo, po, 10 mg/kg
[5] = Particle size, zeta potential and PDI by Zetasizer (dynamic laser scattering); assay type: physicochemical
Protocol: The MH-charged PCMs (0.10 mL) were admixed with distilled water (10.0 mL) in a glass culture tube and vortexed for 5 min. The particle sizes and their scattering surrounding the mean (including those of the pure-MH dispersion, shown in Supplementary Materials Figure S1) were determined at 25 °C using dynamic laser scattering with a 45 mm focus lens and a beam length of 2.4 mm. The same instrument was utilized for the ZP measurements of the electrophoretic mobility of the particles in the electric field.

MERS-CoV = assay type: in vivo, C57BL/6 mice; conditions: oral 10 mg/kg once daily
[6] = test system: myeloperoxidase (MPO) and NF-κB; parameters: species or system C57BL/6 mice; conditions: mouse, in vivo
[7] = test system: MERS-related coronavirus isolate NRCE-HKU270; assay: microbe, parasite or virus in culture; assay type: cell-based, MERS-CoV
lung tissue = test system: lung tissue; parameters: species or system C57BL/6 mice; conditions: mouse, in vivo
[8] = male, Wistar albino, in vivo, po, 20 mg/kg

NC(=O)N1c2ccccc2CC(=O)c2ccccc21 [oxycarbazepine]
pKa [1]: 10.7

O=c1c(O)c(-c2ccc(O)cc2O)oc2cc(O)cc(O)c12 [MH, 2′,3,4′,5,7-pentahydroxyflavone]
Papp at 90 min ([2]; male, Wistar, read-out: apparent permeability coefficient (APC) (converted)): 2.53 ×10⁻⁶ cm/s | flux (Jmax) ([2]; after 90 min): 0.37 ± 0.018 μg/cm^2/min | AUC(0-inf) [3, 8]: 77000 ± 22000 ng·h/mL | Tmax [3, 8]: 2 h | AUC(0-t) ([3]; male, Wistar albino, in vivo, po, 20 mg/kg, AUC0–24, rat, 20 mg/kg MH, n = 6): 56100 ± 16200 ng·h/mL | Cmax ([3]; male, Wistar albino, in vivo, po, 20 mg/kg, Cmax, 20 mg/kg MH, n = 6): 4820 ± 840 ng/mL | AUC0–24 ([3]; oral, 20 mg/kg MH, n = 6, listed as Morin Hydrate Dispersion): 56000 ± 16000 ng·h/mL | concentration for 50% cell cytotoxicity (TC50) (Vero E6 cells): 2.53 µg/mL | IFN-γ level in BALF [4]: 82.7 ± 7.51 pg/mg protein | IL-4 level in BALF [4]: 23.5 ± 2.10 pg/mg protein | IL-6 level in BALF [4]: 112.9 ± 14.6 pg/mg protein | SOD level in BALF [4]: 2.2 ± 0.35 U/mg protein | TNF-α level in BALF [4]: 57.4 ± 6.2 pg/mg protein | particle sizes of MH dispersion ([5]; MH dispersion in PBS used for oral dosing): 672.3 ± 32.1 | PDI polydispersity index ([5]; mean ± SD (n = 3)): 0.576 ± 0.1 | % plaque prohibition in lung homogenate (MERS-CoV; after 3 d postinfection): 27.1% | % plaque prohibition in lung homogenate (MERS-CoV; after 6 d postinfection): 44.8% | effect on MPO and NF-κB protein expression in lung [6]: markedly suppressed the protein expression compared with the infected group | selectivity index (SI = CC50/EC50) [7]: 19.4 | EC50 ([7]; Middle East respiratory syndrome-related coronavirus, Vero C1008, read-out: EC50 antiviral activity): 0.13 µg/mL (≈ 0.43 µM) | inhibition at 0.125 µg/mL ([7]; Middle East respiratory syndrome-related coronavirus, Vero C1008, read-out: inhibition efficacy (viral plaques)): 48% | effect on lung pathological alterations (lung tissue): marked suppression in all of those alterations
